System: SEM cells
Assay: cell viability relative to DMSO control; higher = less cytotoxic
Conditions: 48 h
Outline: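 Viability was expressed as a per-plate percentage of DMSO wells, with cell-free wells as background. Leukemia cells (NOMO1 or SEM at 500 cells/well, P12-Ichikawa at 1000 cells/well) were adapted for at least four passages in each medium and seeded in 1536-well plates (5 μl). Library compounds in DMSO were pin-dosed over an 11-point threefold series from 47 μM to 0.79 nM, and CellTiter-Glo One luminescence was read after 48 h at 37°C.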

[1] = HPLM + 10% dialyzed FBS, 0.000781 µM
[2] = HPLM + 10% dialyzed FBS, 0.00234 µM
[3] = HPLM + 10% dialyzed FBS, 0.00702 µM
[4] = HPLM + 10% dialyzed FBS, 0.0211 µM
[5] = HPLM + 10% dialyzed FBS, 0.0632 µM
[6] = HPLM + 10% dialyzed FBS, 0.19 µM
[7] = HPLM + 10% dialyzed FBS, 0.569 µM
[8] = HPLM + 10% dialyzed FBS, 1.71 µM
[9] = HPLM + 10% dialyzed FBS, 5.12 µM
[10] = HPLM + 10% dialyzed FBS, 15.4 µM
[11] = HPLM + 10% dialyzed FBS, 46.1 µM
[12] = RPMI 5 mM glucose + 10% FBS, 0.000781 µM
[13] = RPMI 5 mM glucose + 10% FBS, 0.00234 µM
[14] = RPMI 5 mM glucose + 10% FBS, 0.00702 µM
[15] = RPMI 5 mM glucose + 10% FBS, 0.0211 µM
[16] = RPMI 5 mM glucose + 10% FBS, 0.0632 µM
[17] = RPMI 5 mM glucose + 10% FBS, 0.19 µM
[18] = RPMI 5 mM glucose + 10% FBS, 0.569 µM
[19] = RPMI 5 mM glucose + 10% FBS, 1.71 µM
[20] = RPMI 5 mM glucose + 10% FBS, 5.12 µM
[21] = RPMI 5 mM glucose + 10% FBS, 15.4 µM
[22] = RPMI 5 mM glucose + 10% FBS, 46.1 µM
[23] = RPMI 5 mM glucose + 10% dialyzed FBS, 0.000781 µM
[24] = RPMI 5 mM glucose + 10% dialyzed FBS, 0.00234 µM
[25] = RPMI 5 mM glucose + 10% dialyzed FBS, 0.00702 µM
[26] = RPMI 5 mM glucose + 10% dialyzed FBS, 0.0211 µM
[27] = RPMI 5 mM glucose + 10% dialyzed FBS, 0.0632 µM
[28] = RPMI 5 mM glucose + 10% dialyzed FBS, 0.19 µM
[29] = RPMI 5 mM glucose + 10% dialyzed FBS, 0.569 µM
[30] = RPMI 5 mM glucose + 10% dialyzed FBS, 1.71 µM
[31] = RPMI 5 mM glucose + 10% dialyzed FBS, 5.12 µM
[32] = RPMI 5 mM glucose + 10% dialyzed FBS, 15.4 µM
[33] = RPMI 5 mM glucose + 10% dialyzed FBS, 46.1 µM

Structure (SMILES)	cell viability [1] [%]	cell viability [2] [%]	cell viability [3] [%]	cell viability [4] [%]	cell viability [5] [%]	cell viability [6] [%]	cell viability [7] [%]	cell viability [8] [%]	cell viability [9] [%]	cell viability [10] [%]	cell viability [11] [%]	cell viability [12] [%]	cell viability [13] [%]	cell viability [14] [%]	cell viability [15] [%]	cell viability [16] [%]	cell viability [17] [%]	cell viability [18] [%]	cell viability [19] [%]	cell viability [20] [%]	cell viability [21] [%]	cell viability [22] [%]	cell viability [23] [%]	cell viability [24] [%]	cell viability [25] [%]	cell viability [26] [%]	cell viability [27] [%]	cell viability [28] [%]	cell viability [29] [%]	cell viability [30] [%]	cell viability [31] [%]	cell viability [32] [%]	cell viability [33] [%]
COc1ccccc1[C@H](c1cccc2ccccc12)[C@@](C)(C#N)C(=O)N1CCC(c2cccc(C(F)(F)F)c2)CC1	87.3	103	96.6	97.4	107	103	108	99.2	89.3	54.4	39.7	92.3	104	102	107	102	114	105	119	111	84.7	56	83.3	91.5	100	99.4	90.8	104	102	87.8	93.9	76.6	54.9
Cc1cn2cc(C(=O)N(C)CCO)cc(N[C@@H]3CCOc4cccc(C)c43)c2n1	90.6	107	106	101	105	107	113	114	109	113	104	84.3	88.8	75	87.1	80.7	82.9	95.8	81.1	87.2	67.6	81.5	88.9	93.7	90	110	95.3	113	94.1	106	108	95.6	94.9
Cc1ccc2nc(NCCN)c3ncc(C)n3c2c1	104	112	111	106	122	113	106	101	102	23.2	5.23	111	108	129	110	122	119	123	102	108	86.4	5.06	94.9	110	94.9	94.5	101	106	111	77.7	91	67.4	4.44
CCCCCCNC(=O)N1\C=C(F)/C(=O)NC1=O	126	104	113	118	121	118	124	110	121	108	83.1	115	118	128	117	134	117	112	129	118	97.9	73.6	126	108	116	129	120	107	99.8	101	106	80.5	46.4
CCN(CC)CCNC(=O)c1c(C)[nH]c(/C=C2\C(=O)Nc3ccc(F)cc32)c1C	48	47.3	43.4	53	41.8	13	9.03	6.26	5.73	4.36	4.22	72.7	66.3	58.1	57	34.1	10.6	9.65	6.37	5.9	3.85	4.31	52.8	42.7	42.2	44.5	27.6	9.68	9.05	6.13	5.9	3.85	3.99
OC[C@H]1O[C@H](C[C@@H]1O)N2/C=C(C(=O)NC2=O)/C(F)(F)F	77.4	95.7	90.9	89.9	92.3	88.7	72.5	50.2	26.2	20.5	11.8	101	104	116	101	109	123	111	103	79.5	30.4	15.5	100	124	111	115	98.3	117	93.9	66.8	22.6	15.5	10.3
CCCCCNC(=N)N/N=C/c1c[nH]c2ccc(OC)cc12	112	119	114	128	108	130	115	124	106	48	31.2												111	118	115	110	117	117	130	122	99.1	56.7	36.6
C[C@@H]1[C@H]\2[C@H](O)[C@H]3[C@H](N(C)C)\C(=C(C(N)=O)/C(=O)[C@@]3(O)\C(=C2C(=O)C4=C(O)C=CC=C14)O)O												115	131	110	127	109	145	122	121	126	102	123	123	122	123	122	108	133	149	144	113	89.9	93.4
